The test system of the test is C. difficile ATCC 43255. Kind of test: Determination of minimal-inhibitory concentrations (microdilution), C. difficile ATCC 43255. The test is classed as cell-based, Clostridioides difficile. The note with it: for MIC: Clostridioides difficile.
Setting [1] is: C. difficile ATCC 43255, 48-h incubation.
Where [2] appears, read: ATCC43255, 24 h, C. difficile ATCC 43255, 24 h, read-out: MIC (μg/mL) 24 h.
Setting [3] is: ATCC43255, 48 h, C. difficile ATCC 43255, 48-h incubation, read-out: MIC (μg/mL) 48 h.

SMILES strings stand for the structures. ≈ marks a conversion by molar mass, not a printed value. Read-outs that look alike come from different tables or passages of the source.

Regarding `c1cc2cc(-c3nc(-c4ccc(OC5CCCC5)cc4)no3)ccc2[nH]1` [Compound 56, 3-(4-(Cyclopentyloxy)phenyl)-5-(1H-indol-5-yl)-1,2,4-oxadiazole], the “MIC (μg/mL) 48 h” value under setting [1] was over 128 µg/mL. The MIC is over 128 µg/mL under setting [2] and over 128 µg/mL under setting [3].
Turning to `C#CCOc1ccc(-c2noc(-c3ccc(O)cc3)n2)cc1` [Compound 88, 4-(3-(4-(Prop-2-yn-1-yloxy)phenyl)-1,2,4-oxadiazol-5-yl)phenol], the MIC was found to be 16 µg/mL (≈ 54.7 µM) under setting [2] and 128 µg/mL (≈ 438 µM) under setting [3].
Taken in the same sequence, the figures for `O=C(c1ccc(-c2noc(-c3ccc(O)cc3)n2)cc1)C(F)(F)F` [Compound 109, 5-(4-Hydroxyphenyl)-3-(4-(2,2,2-trifluoroacetyl)phenyl)-1,2,4-oxadiazole] were 8 µg/mL (≈ 23.9 µM) and 8 µg/mL (≈ 23.9 µM).
In the case of `Cn1c(-c2nc(-c3ccc(OC4CCCC4)cc3)no2)cnc1[N+](=O)[O-]` [Compound 59, 3-(4-(Cyclopentyloxy)phenyl)-5-(1-methyl-2-nitro-1H-imidazol-5-yl)-1,2,4-oxadiazole], the MIC under setting [2] is 32 µg/mL (≈ 90.1 µM).
For the compound `Nc1nc(-c2ccc(OC3CCCC3)cc2)no1` [Compound 68, 3-(4-(Cyclopentyloxy)phenyl)-1,2,4-oxadiazol-5-amine], the MIC is, setting by setting: under setting [2], over 128 µg/mL; under setting [3], over 128 µg/mL.
`CC(C)(C)OC(=O)N1CCC(Oc2ccc(-c3noc(-c4ncc([N+](=O)[O-])[nH]4)n3)cc2)CC1` [Compound 133, 3-(4-((1-(tert-Butoxycarbonyl)piperidin-4-yl)oxy)phenyl)-5-(5-nitro-1H-imidazol-2-yl)-1,2,4-oxadiazole]: the MIC under setting [2] was over 128 µg/mL and the MIC under setting [3] is over 128 µg/mL.
As for `COC(OC)c1ccc(-c2noc(-c3ccc(O)cc3)n2)cc1` [Compound 106, 4-(3-(4-(Dimethoxymethyl)phenyl)-1,2,4-oxadiazol-5-yl)phenol], the MIC was 64 µg/mL (≈ 205 µM) under setting [2] and over 128 µg/mL under setting [3].
`O=C(NNC(=O)c1ccc(OC2CCCC2)cc1)c1ccc(O)cc1` [Compound 138, 4-(Cyclopentyloxy)-N′-(4-hydroxybenzoyl)benzohydrazide]: the MIC was over 128 µg/mL under setting [2] and over 128 µg/mL under setting [3].
With `Oc1ccc(-c2nnc(-c3ccc(OC4CCCC4)cc3)o2)cc1` [Compound 139, 4-(5-(4-(Cyclopentyloxy)phenyl)-1,3,4-oxadiazol-2-yl)phenol], the “MIC (μg/mL) 48 h” value under setting [1] was over 128 µg/mL. Besides, the MIC under setting [2] was over 128 µg/mL.
With `CN1CCC(Oc2ccc(-c3noc(-c4ncc([N+](=O)[O-])[nH]4)n3)cc2)C1.Cl` (stereo not shown) [Compound 132, 3-(4-((1-Methylpyrrolidin-3-yl)oxy)phenyl)-5-(5-nitro-1H-imidazol-2-yl)-1,2,4-oxadiazole hydrochloride], the MIC under setting [2] was over 128 µg/mL and the MIC under setting [3] is over 128 µg/mL.
In the case of `O=[N+]([O-])c1ccc(-c2nc(-c3ccc(OC4CCCC4)cc3)no2)cc1` [Compound 50, 3-(4-(Cyclopentyloxy)phenyl)-5-(4-nitrophenyl)-1,2,4-oxadiazole], the “MIC (μg/mL) 48 h” value under setting [1] is over 128 µg/mL. In addition, the MIC under setting [2] was over 128 µg/mL.
Take `O=[N+]([O-])c1cn(CCO)c(-c2nc(-c3ccc(OC4CCCC4)cc3)no2)n1` [Compound 58, 3-(4-(Cyclopentyloxy)phenyl)-5-(1-(2-hydroxyethyl)-4-nitro-1H-imidazol-2-yl)-1,2,4-oxadiazole]: the “antibacterial activity against C. difficile (in words)” value (C. difficile ATCC43255) is “lost activity”. In addition, the MIC under setting [2] is over 128 µg/mL and the MIC under setting [3] was over 128 µg/mL.
Consider `Oc1ccc(/C=C/c2nc(-c3ccc(OC4CCCC4)cc3)no2)cc1` [Compound 66, 3-(4-(Cyclopentyloxy)phenyl)-(E)-5-(4-hydroxystyryl)-1,2,4-oxadiazole], for which the MIC was 32 µg/mL (≈ 91.8 µM) under setting [2] and 64 µg/mL (≈ 184 µM) under setting [3].
Taken in the same sequence, the figures for `Oc1ccc(-c2nc(-c3ccc(C(O)C(F)(F)F)cc3)no2)cc1` (stereo not shown) [Compound 108, 4-(3-(4-(2,2,2-Trifluoro-1-hydroxyethyl)phenyl)-1,2,4-oxadiazol-5-yl)phenol] were 32 µg/mL (≈ 95.2 µM) and 32 µg/mL (≈ 95.2 µM).
`FC(F)(F)c1ccc(Oc2ccc(-c3noc(-c4cc5ccccc5[nH]4)n3)cc2)cc1` [Compound 48, 5-(1H-Indol-2-yl)-3-(4-(4-(trifluoromethyl)phenoxy)phenyl)-1,2,4-oxadiazole]: the MIC by setting is: under setting [2], over 128 µg/mL; under setting [3], over 128 µg/mL.
For `Fc1ccc2oc3ccc(-c4noc(-c5ccc6[nH]ccc6c5)n4)cc3c2c1` [Compound 121, 3-(8-Fluorodibenzo[b,d]furan-2-yl)-5-(1H-indol-5-yl)-1,2,4-oxadiazole], the MIC by setting is: under setting [2], over 128 µg/mL; under setting [3], over 128 µg/mL.
Take `Oc1ccc(-c2nc(-c3ccc(OC4CCCC=C4Br)cc3)no2)cc1` (stereo not shown) [Compound 78, 4-(3-(4-((2-Bromocyclohex-2-en-1-yl)oxy)phenyl)-1,2,4-oxadiazol-5-yl)phenol]: the “MIC (μg/mL) 48 h” value under setting [1] is over 128 µg/mL. Also, the MIC is, setting by setting: (ATCC43255, 24 h, read-out: MIC (μg/mL) 24 h) over 128 µg/mL; (ATCC43255, 48 h, read-out: MIC (μg/mL) 48 h) over 128 µg/mL.
Consider `Oc1ccc(Nc2nc(-c3ccc(OC4CCCC4)cc3)no2)cc1` [Compound 64, 4-((3-(4-(Cyclopentyloxy)phenyl)-1,2,4-oxadiazol-5-yl)amino)phenol], for which the MIC under setting [2] was found to be 16 µg/mL (≈ 47.4 µM) and the MIC under setting [3] amounted to 32 µg/mL (≈ 94.8 µM).
For `C[C@@H](N)c1nc(-c2ccc(OC3CCCC3)cc2)no1` [Compound 61, (R)-1-(3-(4-(Cyclopentyloxy)phenyl)-1,2,4-oxadiazol-5-yl) ethan-1-amine], the MIC reads like this: under setting [2], over 128 µg/mL; under setting [3], over 128 µg/mL.
For the compound `O=c1[nH]c(-c2ccc(OC3CCCC3)cc2)no1` [Compound 69, 3-(4-(Cyclopentyloxy)phenyl)-1,2,4-oxadiazol-5 (4H)-one], the MIC is, setting by setting: under setting [2], 64 µg/mL (≈ 260 µM); under setting [3], 64 µg/mL (≈ 260 µM).
Consider `Clc1nc(-c2ccc(OC3CCCC3)cc2)no1` [Compound 70, 5-Chloro-3-(4-(cyclopentyloxy)phenyl)-1,2,4-oxadiazole], for which the MIC is, setting by setting: under setting [2], over 128 µg/mL; under setting [3], over 128 µg/mL.
Turning to `O=[N+]([O-])c1ccc(-c2noc(-c3ccc4[nH]ccc4c3)n2)cc1` [Compound 126, 5-(1H-Indol-5-yl)-3-(4-nitrophenyl)-1,2,4-oxadiazole], the MIC was over 128 µg/mL under setting [2] and over 128 µg/mL under setting [3].
Turning to `FC(F)(F)c1ccc(Oc2ccc(-c3noc(-c4ccncc4)n3)cc2)cc1` [Compound 23, 5-(Pyridin-4-yl)-3-(4-(4-(trifluoromethyl)phenoxy)phenyl)-1,2,4-oxadiazole], the MIC is, setting by setting: under setting [2], over 128 µg/mL; under setting [3], over 128 µg/mL.
With `Oc1ccc(-c2nc(-c3ccc(Oc4ccccc4)c(Br)c3)no2)cc1` [Compound 79, 4-(3-(3-Bromo-4-phenoxyphenyl)-1,2,4-oxadiazol-5-yl)phenol], the “MIC (μg/mL) 48 h” value under setting [1] is over 128 µg/mL. Besides, the MIC under setting [2] is over 128 µg/mL.
Consider `C[C@@H](NC(=O)OC(C)(C)C)C(=O)N[C@H](C)c1nc(-c2ccc(OC3CCCC3)cc2)no1` [Compound 62, 5-((R)-1-((R)-2-(Boc-amino)propanamido)ethyl)-3-(4-(cyclopentyloxy)phenyl)-1,2,4-oxadiazole], for which the MIC under setting [2] was over 128 µg/mL and the MIC under setting [3] was over 128 µg/mL.
In the case of `c1cc2cc(-c3nc(-c4ccc5c(c4)CCN5)no3)ccc2[nH]1` [Compound 129, 5-(1H-Indol-5-yl)-3-(indolin-5-yl)-1,2,4-oxadiazole], the MIC by setting is: under setting [2], over 128 µg/mL; under setting [3], over 128 µg/mL.
For `C[C@@H](NC(=O)OC(C)(C)C)c1nc(-c2ccc(OC3CCCC3)cc2)no1` [Compound 60, tert-Butyl (R)-(1-(3-(4-(cyclopentyloxy)phenyl)-1,2,4-oxadiazol-5-yl)ethyl) carbamate], under setting [1], the “MIC (μg/mL) 48 h” value was over 128 µg/mL. Moreover, the “MIC (μg/mL) 24 h” value (C. difficile ATCC 43255, 24 h) was over 128 µg/mL.
Consider `c1nc2ccc(-c3nc(-c4ccc(OC5CCCC5)cc4)no3)cc2[nH]1` [Compound 55, 5-(1H-Benzo[d]imidazol-6-yl)-3-(4-(cyclopentyloxy)phenyl)-1,2,4-oxadiazole], for which the “MIC (μg/mL) 48 h” value under setting [1] was 128 µg/mL (≈ 370 µM). The MIC is, setting by setting: under setting [2], 128 µg/mL (≈ 370 µM); under setting [3], over 128 µg/mL.
Turning to `Cl.O=[N+]([O-])c1c[nH]c(-c2nc(-c3ccc(OC4CCNCC4)cc3)no2)n1` [Compound 134, 5-(4-Nitro-1H-imidazol-2-yl)-3-(4-(piperidin-4-yloxy)phenyl)-1,2,4-oxadiazole hydrochloride], the MIC was over 128 µg/mL under setting [2] and over 128 µg/mL under setting [3].
As to `O=Cc1ccc(-c2noc(-c3ccc(O)cc3)n2)cc1` [Compound 107, 4-(5-(4-Hydroxyphenyl)-1,2,4-oxadiazol-3-yl)benzaldehyde], the MIC by setting is: under setting [2], 64 µg/mL (≈ 240 µM); under setting [3], over 128 µg/mL.
Taken in the same sequence, the figures for `FC(F)(F)c1ccc(Oc2ccc(-c3noc(-c4cn[nH]c4)n3)cc2)cc1` [Compound 33, 5-(1H-Pyrazol-4-yl)-3-(4-(4-(trifluoromethyl)phenoxy)phenyl)-1,2,4-oxadiazole] were over 128 µg/mL and over 128 µg/mL.
As to `Oc1ccc(Cc2nc(-c3ccc(OC4CCCC4)cc3)no2)cc1` [Compound 63, 3-(4-(Cyclopentyloxy)phenyl)-5-(4-hydroxybenzyl)-1,2,4-oxadiazole], the MIC by setting is: under setting [2], 8 µg/mL (≈ 23.8 µM); under setting [3], 16 µg/mL (≈ 47.6 µM).
Taken in the same sequence, the figures for `C#CCCOc1ccc(-c2noc(-c3ccc(O)cc3)n2)cc1` [Compound 89, 4-(3-(4-(But-3-yn-1-yloxy)phenyl)-1,2,4-oxadiazol-5-yl)phenol] were over 128 µg/mL and over 128 µg/mL.
Take `Fc1ccccc1-c1noc(-c2ccc3[nH]ccc3c2)n1` [Compound 125, 3-(2-Fluorophenyl)-5-(1H-indol-5-yl)-1,2,4-oxadiazole]: the MIC by setting is: under setting [2], over 128 µg/mL; under setting [3], over 128 µg/mL.
In the case of `Oc1cccc(/C=C/c2nc(-c3ccc(OC4CCCC4)cc3)no2)c1` [Compound 65, 3-(4-(Cyclopentyloxy)phenyl)-(E)-5-(3-hydroxystyryl)-1,2,4-oxadiazole], the MIC runs as follows: under setting [2], over 128 µg/mL; under setting [3], over 128 µg/mL.

The record behind these values is patent US20260125371A1, “METHOD FOR INHIBITING CLOSTRIDIOIDES DIFFICILE SPORE GERMINATION” (UNIVERSITY OF NOTRE DAME DU LAC, priority 2022, published 2026).
